SMILES strings stand for the structures.

The first experiment relates to NCIH929.1 cells. Kind of experiment: Cell viability assay for Table 2 (CellTiter-Glo 2.0, ATP quantification, 96 hr). Type of experiment: cell-based. Particulars: 96 h. From the text:
Cell Viability Assay for Table 2
CellTiter-Glo® 2.0 Assay was purchased from Promega (Madison, Wis., USA). NCIH929.1 cell line was purchased from ATCC (Manassas, Va., USA). Cell culture flasks and 384-well microplates were acquired from VWR (Radnor, Pa., USA).
The compound `N#Cc1ccc(N2CCN(Cc3ccc(Cc4ccc5c6c(cccc46)C(=O)N5C4CCC(=O)NC4=O)cc3F)CC2)c(F)c1` (centres unmarked) [Compound 214, 4-[4-[[4-[[1-(2,6-dioxo-3-piperidyl)-2-oxo-benzo[cd]indol-6-yl]methyl]-2-fluoro-phenyl]methyl]piperazin-1-yl]-3-fluoro-benzonitrile] gave an IC50 below 1 nM.

Staying with this experiment, now noted: 96 h, NCIH929.1 cell viability, 96 hr, top concentration 1 μM, 14 points half log titration; read-out: IC50.
As for `N#Cc1ccc(N2CCN(Cc3ccn(Cc4ccc5c6c(cccc46)C(=O)N5C4CCC(=O)NC4=O)n3)CC2)c(F)c1` (centres unmarked) [Compound 208, 4-(4-((1-((1-(2,6-dioxopiperidin-3-yl)-2-oxo-1,2-dihydrobenzo[cd]indol-6-yl)methyl)-1-H-pyrazol-3-yl)methyl)piperazin-1-yl)-3-fluorobenzonitrile], the IC50 was below 1 nM.
The same measure, in the same setting: the figure for `N#Cc1ccc(N2CCN(Cc3ccnn3Cc3ccc4c5c(cccc35)C(=O)N4C3CCC(=O)NC3=O)CC2)c(F)c1` (centres unmarked) [Compound 209, 4-(4-((1-((1-(2,6-dioxopiperidin-3-yl)-2-oxo-1,2-dihydrobenzo[cd]indol-6-yl)methyl)-1-H-pyrazol-5-yl)methyl)piperazin-1-yl)-3-fluorobenzonitrile] is below 100 nM; for `O=C1CCC(N2C(=O)c3cccc4c(Cc5ccc(CN6CCN(c7ccccc7)CC6)cc5)ccc2c34)C(=O)N1` (centres unmarked) [Compound 210, 3-(2-oxo-6-(4-((4-phenylpiperazin-1-yl)methyl)benzyl)benzo[cd]indol-1(2H)-yl)piperidine-2,6-dione] it is below 1 nM.
On the same count and under the same terms, the figure for `CC1(n2cc(Cc3ccc4c5c(cccc35)C(=O)N4C3CCC(=O)NC3=O)nn2)CCN(C(=O)C2(C(F)(F)F)CC2)CC1` (centres unmarked) [Compound 211, 3-(6-((1-(4-methyl-1-(1-(trifluoromethyl)cyclopropane-1-carbonyl)piperidin-4-yl)-1H-1,2,3-triazol-4-yl)methyl)-2-oxobenzo[cd]indol-1(2H)-yl)piperidine-2,6-dione] is below 1 nM; for `CC(C)(C)OC1CCC(n2cc(Cc3ccc4c5c(cccc35)C(=O)N4C3CCC(=O)NC3=O)cn2)CC1` (centres unmarked) [Compound 212, 3-[6-[[1-(4-tert-butoxycyclohexyl)pyrazol-4-yl]methyl]-2-oxo-benzo[cd]indol-1-yl]piperidine-2,6-dione] it is below 1 nM; for `O=C1CCC(N2C(=O)c3cccc4c(Cc5ccc(CN6CCC7(CCCO7)CC6)cc5)ccc2c34)C(=O)N1` (centres unmarked) [Compound 215, 3-(6-(4-((1-oxa-8-azaspiro[4.5]decan-8-yl)methyl)benzyl)-2-oxobenzo[cd]indol-1(2H)-yl)piperidine-2,6-dione] it is below 1 nM.
Regarding `O=C1CCC(N2C(=O)c3cccc4c(Cc5ccc(CN6CCOCC6)cc5)ccc2c34)C(=O)N1` (centres unmarked) [Compound 218, 3-(6-(4-(morpholinomethyl)benzyl)-2-oxobenzo[cd]indol-1(2H)-yl)piperidine-2,6-dione], the IC50 is below 1 nM.
The same measure, in the same setting: the figure for `O=C1CCC(N2C(=O)c3cccc4c(Cc5ccc(CN6CCC7(CCCO7)CC6)cc5)cnc2c34)C(=O)N1` (centres unmarked) [Compound 222, 3-[23-[[4-(1-oxa-8-azaspiro[4.5]decan-8-ylmethyl)phenyl]methyl]-28-oxo-31,34-diazatricyclododeca-(2),1(21),7(23),22(24),25(31)-pentaen-34-yl]piperidine-2,6-dione] is below 1 nM; for `O=C1CCC(N2C(=O)c3cccc4c(Cc5cnn(C6CCN(C7(C8CC8)CC7)CC6)c5)ccc2c34)C(=O)N1` (centres unmarked) [Compound 223, 3-[6-[[1-[1-(1-cyclopropylcyclopropyl)-4-piperidyl]pyrazol-4-yl]methyl]-2-oxo-benzo[cd]indol-1-yl]piperidine-2,6-dione] it is below 1 nM.
On the same count and under the same terms, under `O=C1CCC(N2C(=O)c3cccc4c(Cc5ccc(CN6CCC7(CCCCC7)CC6)cc5)ccc2c34)C(=O)N1` (centres unmarked) [Compound 224, 3-(6-(4-((3-azaspiro[5.5]undecan-3-yl)methyl)benzyl)-2-oxobenzo[cd]indol-1(2H)-yl)piperidine-2,6-dione] stands below 1 nM; under `O=C1CCC(N2C(=O)c3cccc4c(Cc5ccc(CN6CCC7(CCCC7)CC6)cc5)ccc2c34)C(=O)N1` (centres unmarked) [Compound 225, 3-(6-(4-((8-azaspiro[4.5]decan-8-yl)methyl)benzyl)-2-oxobenzo[cd]indol-1(2H)-yl)piperidine-2,6-dione], below 1 nM.
In the case of `O=C1CCC(N2C(=O)c3cccc4c(Cc5ccc(CN6CCC(c7ccccc7)CC6)cc5)ccc2c34)C(=O)N1` (centres unmarked) [Compound 227, 3-(2-oxo-6-(4-((4-phenylpiperidin-1-yl)methyl)benzyl)benzo[cd]indol-1(2H)-yl)piperidine-2,6-dione], the IC50 was below 1 nM.
Still for that read-out and setting: under `O=C1CCC(N2C(=O)c3cccc4c(Cc5ccc(CN6CCC7(CCCCO7)CC6)cc5)ccc2c34)C(=O)N1` (centres unmarked) [Compound 228, 3-(6-(4-((1-oxa-9-azaspiro[5.5]undecan-9-yl)methyl)benzyl)-2-oxobenzo[cd]indol-1(2H)-yl)piperidine-2,6-dione] stands below 1 nM; under `CN(Cc1ccc(Cc2ccc3c4c(cccc24)C(=O)N3C2CCC(=O)NC2=O)cc1)c1ccccc1` (centres unmarked) [Compound 229, 3-(6-(4-((methyl(phenyl)amino)methyl)benzyl)-2-oxobenzo[cd]indol-1(2H)-yl)piperidine-2,6-dione], below 1 nM; under `O=C1CCC(N2C(=O)c3cccc4c(Cc5ccc(CN6CC7(COC7)C6)cc5)ccc2c34)C(=O)N1` (centres unmarked) [Compound 230, 3-(6-(4-((2-oxa-6-azaspiro[3.3)heptan-6-yl)methyl)benzyl)-2-oxobenzo[cd]indol-1(2H)-yl)piperidine-2,6-dione], below 1 nM.
On the same count and under the same terms, the figure for `C[C@@H]1CN(Cc2ccc(Cc3ccc4c5c(cccc35)C(=O)N4C3CCC(=O)NC3=O)cc2)C[C@H](C)O1` (stereo partly drawn) [Compound 231, 3-(6-(4-(((2R,6S)-2,6-dimethylmorpholino)methyl)benzyl)-2-oxobenzo[cd]indol-1(2H)-yl)piperidine-2,6-dione] is below 1 nM; for `CC(C)(O)C1CCN(Cc2ccc(Cc3ccc4c5c(cccc35)C(=O)N4C3CCC(=O)NC3=O)cc2)CC1` (centres unmarked) [Compound 232, 3-(6-(4-((4-(2-hydroxypropan-2-yl)piperidin-1-yl)methyl)benzyl)-2-oxobenzo[cd]indol-1(2H)-yl)piperidine-2,6-dione] it is below 1 nM; for `CC1(n2cc(Cc3ccc4c5c(cccc35)C(=O)N4C3CCC(=O)NC3=O)cn2)CCN(S(=O)(=O)C2(C)CCC2)CC1` (centres unmarked) [Compound 233, 3-[6-[[1-[4-methyl-1-(1-methylcyclobutyl)sulfonyl-4-piperidyl]pyrazol-4-yl]methyl]-2-oxo-benzo[cd]indol-1-yl]piperidine-2,6-dione] it is below 1 nM.
Same read-out and setting: under `CC1(C)C(N2CCC(n3cc(Cc4ccc5c6c(cccc46)C(=O)N5C4CCC(=O)NC4=O)cn3)CC2)C1(C)C` (centres unmarked) [Compound 240, 3-(2-oxo-6-((1-(1-(2,2,3,3-tetramethylcyclopropyl)piperidin-4-yl)-1H-pyrazol-4-yl)methyl)benzo[cd]indol-1(2H)-yl)piperidine-2,6-dione] stands below 1 nM; under `CC(C)(C)OC(=O)N1CCC(C)(n2cc(C(=O)c3ccc4c5c(cccc35)C(=O)N4C3CCC(=O)NC3=O)cn2)CC1` (centres unmarked) [Compound 241, 4-{4-[1-(2,6-Dioxo-piperidin-3-yl)-2-oxo-1,2-dihydro-benzo[cd]indole-6-carbonyl]-pyrazol-1-yl}-4-methyl-piperidine-1-carboxylic acid tert-butyl ester], below 100 nM; under `O=C1CCC(N2C(=O)c3cccc4c(Cc5cnn(C6CCN([C@H]7CCC8(CCC8)C7)CC6)c5)ccc2c34)C(=O)N1` (some centres unmarked) [Compound 242], below 1 nM.
Turning to `O=C1CCC(N2C(=O)c3cccc4c(Cc5cnn(C6CCN([C@@H]7CCC8(CCC8)C7)CC6)c5)ccc2c34)C(=O)N1` (some centres unmarked) [Compound 243], the IC50 is below 1 nM.
As to `CC1(C(=O)N2CCN(c3cnn(Cc4ccc5c6c(cccc46)C(=O)N5C4CCC(=O)NC4=O)c3)CC2)CCC1` (centres unmarked) [Compound 246, 3-(6-((4-(4-(1-methylcyclobutane-1-carbonyl)piperazin-1-yl)-1H-pyrazol-1-yl)methyl)-2-oxobenzo[cd]indol-1(2H)-yl)piperidine-2,6-dione], the IC50 was below 1 nM.
For `COC(c1cnn(C2CCN(C(=O)C3(C)CCC3)CC2)c1)c1ccc2c3c(cccc13)C(=O)N2C1CCC(=O)NC1=O` (centres unmarked) [Compound 247, 3-[6-[methoxy-[1-[1-(1-methylcyclobutanecarbonyl)-4-piperidyl]pyrazol-4-yl]methyl]-2-oxo-benzo[cd]indol-1-yl]piperidine-2,6-dione], the IC50 is below 1 nM.
Consider `CC(C)(C)OC(=O)N1CCC(n2cc(Nc3ccc4c5c(cccc35)C(=O)N4C3CCC(=O)NC3=O)cn2)CC1` (centres unmarked) [Compound 248, tert-butyl 4-[4-[[1-(2,6-dioxo-3-piperidyl)-2-oxo-benzo[cd]indol-6-yl]amino]pyrazol-1-yl]piperidine-1-carboxylate], for which the IC50 is below 100 nM.
With `CC1(C(=O)N2CCC(n3cc(Nc4ccc5c6c(cccc46)C(=O)N5C4CCC(=O)NC4=O)cn3)CC2)CCC1` (centres unmarked) [Compound 249, 3-[6-[[1-[1-(1-methylcyclobutanecarbonyl)-4-piperidyl]pyrazol-4-yl]amino]-2-oxo-benzo[cd]indol-1-yl]piperidine-2,6-dione], the IC50 is below 100 nM.

Still in this experiment, the particulars now being: NCIH929.1 cell viability, 96 hr, top concentration 1 μM, 14 points half log titration; read-out: IC50.
Take `CC(C)(C)OC1CCC(n2cc(Cc3ccc4c5c(cccc35)C(=O)N4C3CCC(=O)NC3=O)cn2)CC1` (centres unmarked) [Compound 213, 3-[6-[[1-(4-tert-butoxycyclohexyl)pyrazol-4-yl]methyl]-2-oxo-benzo[cd]indol-1-yl]piperidine-2,6-dione]: the IC50 is below 1 nM.
On the same count and under the same terms, under `O=C1CCC(N2C(=O)c3cccc4c(Cc5ccc(CN6C7COCC6C7)cc5)ccc2c34)C(=O)N1` (centres unmarked) [Compound 226, 3-(6-(4-((3-oxa-6-azabicyclo[3.1.1]heptan-6-yl)methyl)benzyl)-2-oxobenzo[cd]indol-1(2H)-yl)piperidine-2,6-dione] stands below 1 nM.
